Source: patent US5328912A (priority 1993, dated 1994)

Target: GABAa receptor
Experiment: GABAa receptor binding assay (displacement of 3H-RO15-1788, rat cortical tissue homogenate)
Details: 3H-RO15-1788 0.5 nM, 30 min at 4° C., pH 7.4
Procedure: The pharmaceutical utility of compounds of this invention are indicated by the following assay for GABAa receptor activity.
Assays are carried out as described in Thomas and Tallman (J. Bio. Chem. 156: 9838-9842, J. Neurosci. 3: 433-440, 1983). Rat conical tissue is dissected and homogenized in 25 volumes (w/v) of 0.05M Tris HCl buffer (pH 7.4 at 4° C.). The tissue homogenate is centrifuged in the cold (4°) at 20,000× g for 20'. The supernatant is decanted and the pellet is rehomogenized in the same volume of buffer and again centrifuged at 20,000× g. The supernatant is decanted and the pellet is frozen at -20° C. overnight. The pellet is then thawed and rehomogenized in 25 volume (original wt/vol) of buffer and the procedure is carried out twice. The pellet is finally resuspended in 50 volumes (w/vol of 0.05M Tris HCl buffer (pH 7.4 at […]).
Incubations contain 100 μl of tissue homogenate 100 μl of radioligand 0.5 nM (^3 H-RO15-1788 specific activity 80 Ci/mmol), drug or blocker and buffer to a total volume of 500 μl. Incubations are carried for 30 min at 4° C. then are rapidly filtered through GFB filters to separate free and bound ligand. Filters are washed twice with fresh 0.05M Tris HCl buffer (pH 7.4 at 4° C.) and counted in a liquid scintillation counter. 1.0 μM diazepam is added to some tubes to determine nonspecific binding. Data are collected in triplicate determinations, averaged and % inhibition of total specific binding is calculated. Total Specific Binding=Total-Nonspecific. In some cases, the amounts of unlabeled drugs is varied and total displacement curves of binding are carried out. Data are convened to a form for the calculation of IC50 and Hill Coefficient (nH).

Structure (SMILES) | IC50 [nM]
CC(c1ccccc1)N1CCc2[nH]c(=O)n3cc(-c4ccccc4F)nc3c2C1 (racemic) [Compound 21, ±9-(α-Methylbenzyl)-2-(2-fluorophenyl)-7,8,9,10-tetrahydro-imidazo[1,2-c]pyrido[3,4-e] pyrimidin-5(6H)-one] | 4.8
O=C(c1ccccc1)N1CCc2[nH]c(=O)n3cc(-c4ccccc4F)nc3c2C1 [Compound 1, 9-Benzoyl-2-(2-fluorophenyl)-7,8,9,10-tetrahydro-imidazo[1,2-c]pyrido[3,4-e]pyrimidin-5(6H)-one] | 500
O=c1[nH]c2c(c3nc(-c4ccccc4F)cn13)CN(Cc1ccccc1F)CC2 [Compound 13, 9-(2-Fluorobenzyl)-2-(2-fluorophenyl)-7,8,9,10-tetrahydro-imidazo[1,2-c]pyrido[3,4-e] pyrimidin-5(6H)-one] | 2.4
O=c1[nH]c2c(c3nc(-c4cccc(Cl)c4)cn13)CN(Cc1ccccc1)CC2 [Compound 14, 9-Benzyl-2-(3-chlorophenyl)-7,8,9,10-tetrahydro-imidazo[1,2-c]pyrido[3,4-e] pyrimidin-5(6H)-one] | 100
O=c1[nH]c2c(c3nc(-c4ccccc4F)cn13)CN(Cc1ccc(F)cc1)CC2 [Compound 22, 9-(4-Fluorobenzyl)-2-(2-fluorophenyl)-7,8,9,10-tetrahydro-imidazo[1,2-c]pyrido[3,4-e]pyrimidin-5(6H)-one] | 3.8
CCC(=O)N1CCc2[nH]c(=O)n3cc(-c4ccccc4F)nc3c2C1 [Compound 36, 9-propionyl-2-(2-fluorophenyl)-7,8,9,10-tetrahydro-imidazo[1,2-c]pyrido[3,4-e]pyrimidin-5(6H)-one] | 10
O=C(OCc1ccccc1)N1CCc2[nH]c(=O)n3cc(-c4ccccc4F)nc3c2C1 [Compound 44, 9-Carbobenzyloxy-2-(2-fluorophenyl)-7,8,9,10-tetrahydro-imidazo[1,2-c]pyrido[3,4-e]pyrimidin-5(6H)-one] | 10
CN1CCc2[nH]c(=O)n3cc(-c4ccccc4F)nc3c2C1 [Compound 49, 9-Methyl-2-(2-fluorophenyl)-7,8,9,10-tetrahydro-imidazo[1,2-c]pyrido[3,4-e]pyrimidin-5(6H)-one] | 30
